According to patent US5723319A, “Cultured cell line that inducibly expresses the hepatitis B virus genome, and uses thereof for screening antiviral substances” (Avid Therapeutics, Inc., priority 1995, dated 1998):
Read-outs that look alike come from different tables or passages of the source.

How the values were obtained:
HBV (Hep AD38 cells) = test: Inhibition of release of HBV DNA into the extracellular environment, Hep AD38 cells (dot blot); assay type: cell-based, human hepatitis B virus
Protocol: Samples were analyzed by dot blot hybridization to detect the presence HBV DNA in the cell culture supernatants (Korba and Milman, 1991, supra). Supernatants were mixed with an equal volume of denaturation solution (1M NaOH/10× SSC) and incubated for 20 minutes at room temperature. The denatured supernatant mixture was blotted on a nylon membrane (Amersham, Arlington Heights, Ill.) using a dot blot apparatus (Schleicher and Schuell, Keene, N.H.). Samples were neutralized by washing the membrane with 0.5 ml of 1M Tris, pH 7.2/2M NaCl followed by 0.5 ml of 20× SSC. Filters were then rinsed in 2× SSC, subjected to UV light crosslinking (Stratalinker), and prehybridized in 5× SSC, 5× Denhardt's Reagent, 20 mM NaPO4, pH 6.5, 50% formamide, 1% SDS, and 250 mg/L salmon sperm DNA for 1 hour at 42° C.
A 2.8 Kb fragment corresponding to the HBV sequences of pCMAYW was generated by PCR amplification, and served as a template for the synthesis of [α-^32 P]dCTP labelled hybridization probes by random priming according to the vendor's specifications (Megaprime DNA Labelling System, Amersham). Blots were hybridized with the radioactively labelled probe for sixteen hours at 42° C. The filters were then washed twice in 2× SSC/0.1% SDS at 25° C. for 20 minutes each and twice in 0.2× SSC/0.1% SDS at 65° C. for 20 minutes each. Radioactivity for individual samples was quantitated with a Fuji MacBAS 1000 Phosphorimager.
Cells were seeded in 24 well plates at 4×10^5 cells/well and were grown to 100% confluency (approximately 3 days). At this time (day 0), cells were washed 3 times with PBS and 0.5 ml of medium containing various concentrations of known HBV inhibitors (ddC, 3TC and CDG). For each compound, four different concentrations and a negative control were tested, in the presence or in the absence of tetracycline. Typically, the medium was replaced 24 hours prior to collection with samples being collected four, eight, and twelve days after induction. […]
The samples were evaluated to determine the effective concentration of the inhibitors that inhibited the release of HBV DNA by 50%. […]

HBV (2.2.15 cells) = test: Inhibition of release of HBV DNA into the extracellular environment, 2.2.15 cells (dot blot); assay type: cell-based, hepatitis B virus
Excerpt: The current state of, the art for the detection of HBV in tissue culture is the HepG2 or 2.2.15 cell line assay (Korba & Milman, Antiviral Research 15: 217-228 1991). This assay uses HepG2 cells (a human hepatoblastoma cell line) stably transfected with DNA from a clone containing two tandemly arranged copies of the HBV genome. […] The 2.2.15 cell line produces HBV at levels sufficient for measurement by conventional detection methods (Aoki-Sef et al., J. Infect. Dis. 164: 843-851 1988; Sells et al., Proc. Natl. Acad. Sci. USA 84: 4641-4644 1988).
Cells were seeded in 24 well plates at 4×10^5 cells/well and were grown to 100% confluency (approximately 3 days). At this time (day 0), cells were washed 3 times with PBS and 0.5 ml of medium containing various concentrations of known HBV inhibitors (ddC, 3TC and CDG). For each compound, four different concentrations and a negative control were tested, in the presence or in the absence of tetracycline. Typically, the medium was replaced 24 hours prior to collection with samples being collected four, eight, and twelve days after induction. Media were clarified by centrifugation and stored at -70° C. for further analysis. The procedure for susceptibility testing in a 96-well format was essentially the same as for the 24 well plate format except that cells were seeded in 96 well plates at 5×10^4 cells/well, 5 concentrations of drug were tested, and the volume of medium used was 100 μl. In addition, samples were removed from the wells for HBV DNA determination either with and without medium changes 24 hours prior to collection.
The samples were evaluated to determine the effective concentration of the inhibitors that inhibited the release of HBV DNA by 50%. This value is referred to as the EC50 for the compound.

[1] = system: HBV Dane particles (HepG2 cells); test: Induction of HBV Dane particles, HepG2 cells +/- tetracycline; assay type: cell-based, hepatitis B virus
Protocol: (§1) For each cell line, two 60 mm plates were seeded with 3×10^6 cells. When the cells reached full confluency, the medium was changed and tetracycline was removed from the medium of one the plates. […] The medium was adjusted to 10% glycerol (by volume) and incubated one hour at 4° C. Dane particles were pelleted by […] centrifugation and resuspended in PBS. The viral capsid was disrupted with 1% NP-40 (Sigma Chemical Co., St Louis, Mo.) and the capsid proteins were digested with proteinase K (50 μg/ml). The viral DNA was analyzed by dot blot hybridization using a radioactively labeled probe specific for HBV DNA.

[2] = system: HBV Dane particles (Hep AD38 cells); test: Induction of HBV Dane particles, Hep AD38 cells +/- tetracycline; assay type: cell-based, human hepatitis B virus
Protocol: as §1

[3] = system: HBV DNA intermediates (Hep AD38 cells); test: Southern blot of HBV DNA replicative intermediates (cccDNA, replicative intermediates, core DNA), Hep AD38 cells; assay type: cell-based, human hepatitis B virus; settings: Hep AD38, presence of tetracycline
Protocol: For each of the Hep AD38, HepG2 and 2.2.15 cell lines, two 60 mm plates were seeded with 3×10^6 cells and allowed to grow as described above. When the cells became confluent, the medium was changed and tetracycline was removed from the medium on one of the plates. After a six day induction period, the medium again was removed and the cells were washed with PBS. Cells were then incubated at 37° C. for 10 minutes with 1 ml lysis buffer (0.5% SDS, 10 mM Tris-HCl, pH 7.5, 10 mM EDTA, 0.15M NaCl). The cell solutions were transferred to 1.5 ml Eppendorf tubes, adjusted to 0.5 M KCl, and incubated on ice for 15 minutes. The lysates were then clarified by high-speed centrifugation for 15 minutes at 4° C., and the supernatants were collected. DNA was isolated from the supernatants by phenol extraction followed by cold ethanol precipitation. Pelleted DNA was resuspended in 40 μl TE buffer.
For each cell line, two 60 mm plates were seeded with 3×10^6 cells. When the cells reached full confluency, the medium was changed and tetracycline was removed from the medium of one of the plates. After a 7 day induction period, the medium was removed and cells were washed with PBS. Cells were lysed by the addition of 0.6 ml of transfection lysis buffer (50 mM Tris, pH 8.0, 1 mM EDTA, 1% NP40) to each plate. The mixture was pipetted thoroughly to ensure complete cell lysis. […]

[4] = system: HBV Dane particles (2.2.15 cells); test: Induction of HBV Dane particles, 2.2.15 cells +/- tetracycline; assay type: cell-based, hepatitis B virus
Protocol: as §1

Nc1ccn([C@@H]2CS[C@H](CO)O2)c(=O)n1 [3TC]
EC50 (HBV (Hep AD38 cells); Hepatitis B virus, HePAD38): 0.02 µM
EC50 (HBV (2.2.15 cells); Hepatitis B virus): 0.05 µM

Nc1nc2c(ncn2C2CC(O)C(CO)C2)c(=O)[nH]1 (stereo not shown) [CDG]
EC50 (HBV (Hep AD38 cells)): 0.011 µM
EC50 (HBV (2.2.15 cells)): 0.019 µM

Nc1ccn([C@H]2CC[C@@H](CO)O2)c(=O)n1 [ddC]
EC50 (HBV (Hep AD38 cells); Hepatitis B virus, HePAD38): 8 µM
EC50 (HBV (2.2.15 cells); Hepatitis B virus): 6 µM

CN(C)C1C(=O)C(C(N)=O)=C(O)C2(O)C(=O)C3=C(O)c4c(O)cccc4C(C)(O)C3CC12 (stereo not shown) [tetracycline]
HBV DNA released (Dane particles) ([1]; HepG2, +Tet, Day 7): 0 CPM/well
HBV DNA released (Dane particles) ([1]; HepG2, +Tet., Day 4): 0 CPM/well
production of HBV Dane particles ([2]; Hep AD38, 0.3 μg/ml of tetracycline): completely inhibits
HBV DNA released (Dane particles) ([2]; Hep AD38, +Tet, Day 7): 0 CPM/well
HBV DNA released (Dane particles) ([2]; Hep AD38, +Tet., Day 4): 0 CPM/well
release of HBV DNA into the extracellular environment ([2]; Hep AD38, grown in the presence of tetracycline): do not release HBV DNA
HBV DNA intermediates made [3]: not made
HBV DNA released (Dane particles) ([4]; 2.2.15, +Tet, Day 7): 1.8 × 10^4 CPM/well
HBV DNA released (Dane particles) ([4]; 2.2.15, +Tet., Day 4): 4 × 10^3 CPM/well
response to the presence or absence of tetracycline with regard to release of HBV DNA into the medium ([4]; 2.2.15, presence or absence of tetracycline): no response
